Results from ChEMBL document CHEMBL1133556, “Carbonic anhydrase inhibitors: water-soluble 4-sulfamoylphenylthioureas as topical intraocular pressure-lowering agents with long-lasting effects” (J Med Chem, 2000).
Converted amounts (≈) assume the structure as drawn.

Key:
[1] = organism: Oryctolagus cuniculus
[2] = molecular target: Carbonic anhydrase 2 (Homo sapiens, UniProt P00918)
Description: Inhibitory activity against human recombinant carbonic anhydrase II

[3] = molecular target: T1, Carbonic anhydrase 4 (Bos taurus, UniProt Q95323)
T1 sequence (Q95323 whole entry): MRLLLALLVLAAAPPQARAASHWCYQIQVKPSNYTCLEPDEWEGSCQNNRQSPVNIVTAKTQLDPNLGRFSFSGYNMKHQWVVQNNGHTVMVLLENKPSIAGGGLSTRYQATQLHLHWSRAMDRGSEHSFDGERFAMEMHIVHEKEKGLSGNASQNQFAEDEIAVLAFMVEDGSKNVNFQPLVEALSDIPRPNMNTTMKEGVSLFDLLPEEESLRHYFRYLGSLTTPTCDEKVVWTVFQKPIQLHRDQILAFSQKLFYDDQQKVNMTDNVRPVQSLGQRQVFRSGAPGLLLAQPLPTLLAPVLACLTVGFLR
Description: Inhibitory activity against bovine carbonic anhydrase IV from lung microsomes

[4] = test system: Oryctolagus cuniculus; assay: Tested in vivo for lowering IOP (Intraocular Pressure)in Normotensive Rabbits at pH 7.0 after treatment with 50 uL, activity at 90 minutes; format: functional
[5] = molecular target: Carbonic anhydrase 1 (Homo sapiens, UniProt P00915)
Description: Inhibitory activity against human recombinant carbonic anhydrase I

[6] = organism: Oryctolagus cuniculus; remark: listed apart in the source
[7] = organism: Oryctolagus cuniculus; remark: listed apart in the source
[8] = test system: Oryctolagus cuniculus; assay: Tested in vivo for lowering IOP (Intraocular Pressure)in Normotensive Rabbits at pH 7.0 after treatment with 50 uL, activity at 30 minutes; format: functional
[9] = organism: Oryctolagus cuniculus; remark: listed apart in the source
Description: Tested in vivo for lowering IOP (Intraocular Pressure)in Normotensive Rabbits at pH 6.5 after treatment with 50 uL, activity at 90 minutes

[10] = octanol/water
Description: Partition coefficient (logD) (chloroform/buffer)

[11] = organism: Oryctolagus cuniculus; assay: Tested ex vivo for ocular tissue concentration against cornea after 2 hour of treatment with 50 uL; format: functional, organism-based
[12] = organism: Oryctolagus cuniculus; remark: listed apart in the source
Description: Tested in vitro for transcorneal accession rates (corneal permeability) against cornea with no epithelium

[13] = test system: Oryctolagus cuniculus; assay: Tested in vivo for lowering IOP (Intraocular Pressure)in Glaucomatous Rabbits at pH 7.0 after treatment with 50 uL, activity at 60 minutes; format: functional
[14] = organism: Oryctolagus cuniculus; assay: Tested ex vivo for ocular tissue concentration against ciliary process after 2 hour of treatment with 50 uL; format: functional, organism-based; details: Eye
[15] = organism: Oryctolagus cuniculus; assay: Tested ex vivo for ocular tissue concentration against ciliary process after 1 hour of treatment with 50 uL; format: functional, organism-based; details: Eye
[16] = organism: Oryctolagus cuniculus; assay: Tested ex vivo for ocular tissue concentration against cornea after 1 hour of treatment with 50 uL; format: functional, organism-based
[17] = organism: Oryctolagus cuniculus; remark: listed apart in the source
Description: Tested in vitro for transcorneal accession rates (corneal permeability) against intact cornea

[18] = organism: Oryctolagus cuniculus; assay: Tested ex vivo for ocular tissue concentration against aqueous humor after 2 hour of treatment with 50 uL; format: functional, organism-based; details: Eye
[19] = organism: Oryctolagus cuniculus; assay: Tested ex vivo for ocular tissue concentration against aqueous humor after 1 hour of treatment with 50 uL; format: functional, organism-based; details: Eye
[20] = test system: Oryctolagus cuniculus; assay: Tested in vivo for lowering IOP (Intraocular Pressure)in Glaucomatous Rabbits at pH 7.0 after treatment with 50 uL, activity at 90 minutes; format: functional
[21] = test system: Oryctolagus cuniculus; assay: Tested in vivo for lowering IOP (Intraocular Pressure)in Glaucomatous Rabbits at pH 7.0 after treatment with 50 uL, activity at 30 minutes; format: functional
[22] = physchem; details: buffer, pH 7.4
Description: Solubility (in uM) in pH 7.40 at 25 degree C

[23] = test system: Oryctolagus cuniculus; assay: Tested in vivo for lowering IOP (Intraocular Pressure)in Normotensive Rabbits at pH 7.0 after treatment with 50 uL, activity at 60 minutes; format: functional
[24] = test system: Oryctolagus cuniculus; assay: Tested in vivo for lowering IOP (Intraocular Pressure)in Normotensive Rabbits at pH 7.0. after treatment with 50 uL, activity at 90 minutes; format: functional
[25] = test system: Oryctolagus cuniculus; assay: Tested in vivo for lowering IOP (Intraocular Pressure)in Normotensive Rabbits at pH 6.5 after treatment with 50 uL, activity at 60 minutes; format: functional
[26] = test system: Oryctolagus cuniculus; assay: Tested in vivo for lowering IOP (Intraocular Pressure)in Normotensive Rabbits at pH 6.5 after treatment with 50 uL, activity at 30 minutes; format: functional
[27] = test system: Oryctolagus cuniculus; assay: Tested in vivo for lowering IOP (Intraocular Pressure)in Glaucomatous Rabbits at pH 7.5 after treatment with 50 uL, activity at 90 minutes; format: functional
[28] = test system: Oryctolagus cuniculus; assay: Tested in vivo for lowering IOP (Intraocular Pressure)in Glaucomatous Rabbits at pH 7.5 after treatment with 50 uL, activity at 60 minutes; format: functional
[29] = test system: Oryctolagus cuniculus; assay: Tested in vivo for lowering IOP (Intraocular Pressure)in Glaucomatous Rabbits at pH 7.5 after treatment with 50 uL, activity at 30 minutes; format: functional

Chain of Carbonic anhydrase 1 (P00915 whole entry): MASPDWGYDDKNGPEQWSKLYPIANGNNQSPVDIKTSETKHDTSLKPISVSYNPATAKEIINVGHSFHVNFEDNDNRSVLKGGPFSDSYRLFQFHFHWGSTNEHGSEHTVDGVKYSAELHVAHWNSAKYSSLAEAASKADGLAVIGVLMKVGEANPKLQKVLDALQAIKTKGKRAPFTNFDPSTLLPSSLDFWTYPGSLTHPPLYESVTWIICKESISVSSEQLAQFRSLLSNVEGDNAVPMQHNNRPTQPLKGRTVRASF

Row | Compound | Delta IOP [1] | Ki [2] | Ki [3] | Ki [5] | Delta IOP [6] | Delta IOP [7] | further results
1 | NS(=O)(=O)c1ccc(N/C(S)=N\c2ccccc2C(=O)O)cc1 | 4.3 mmHg | 0.013 µM | 0.029 µM | 0.055 µM | 8 mmHg |  | Delta IOP [4]: 0.9 mmHg
2 | NS(=O)(=O)c1ccc(N/C(S)=N\CCCC(=O)O)cc1 |  | 0.011 µM | 0.033 µM | 0.045 µM | 3.1 mmHg | 2.9 mmHg | Delta IOP [8]: 5 mmHg
3 | NS(=O)(=O)c1ccc(N/C(S)=N\Cc2ccccn2)cc1 |  | 0.045 µM | 0.076 µM | 0.135 µM |  |  | Delta IOP [9]: 0.6 mmHg
4 | NC(=O)CC(/N=C(\S)Nc1ccc(S(N)(=O)=O)cc1)C(=O)O (stereo not given) | 7 mmHg | 0.006 µM | 0.011 µM | 0.027 µM | 10.1 mmHg | 6 mmHg | logD [10]: 1.759; Concentration [11]: 54 µM; kin [12]: 7800 h⁻¹; Delta IOP [13]: 13 mmHg; Concentration [14]: 12 µM; Concentration [15]: 47 µM; Concentration [16]: 141 µM; kin [17]: 3100 h⁻¹; Concentration [18]: 43 µM; Concentration [19]: 285 µM; Delta IOP [20]: 15.5 mmHg; Delta IOP [21]: 10 mmHg; solubility [22]: 51 mM (≈ 17.7 mg/mL)
5 | NCCCCC(/N=C(\S)Nc1ccc(S(N)(=O)=O)cc1)C(=O)O (stereo not given) | 0 mmHg | 0.012 µM | 0.055 µM | 0.097 µM |  |  | Delta IOP [23]: 0 mmHg; Delta IOP [24]: 0 mmHg
6 | NS(=O)(=O)c1ccc(N/C(S)=N\CCc2c[nH]cn2)cc1 |  | 0.033 µM | 0.056 µM | 0.092 µM |  |  | Delta IOP [9]: 0 mmHg; Delta IOP [25]: 0.3 mmHg; Delta IOP [26]: 3 mmHg
7 | NS(=O)(=O)c1ccc(N/C(S)=N/C(CO)C(=O)O)cc1 (stereo not given) | 8 mmHg | 0.003 µM | 0.015 µM | 0.028 µM |  | 9.1 mmHg | logD [10]: 1.459; Delta IOP [23]: 9.5 mmHg; kin [12]: 8000 h⁻¹; kin [17]: 3400 h⁻¹; Delta IOP [27]: 17.5 mmHg; Delta IOP [28]: 15 mmHg; Delta IOP [29]: 10.4 mmHg; solubility [22]: 73 mM (≈ 23.3 mg/mL)
